Measurements published in patent US6362369B1, “Phthalic acid diamide derivatives fluorine-containing aniline compounds as starting material, agricultural and horticultural insecticides, and a method for application of the insecticides” (Nihon Nohyaku Co., Ltd., priority 1997, dated 2002).

How the values were obtained:
Format in all cases: in vivo
[1] = system: diamondback moth (Plutella xylostella); assay: Insecticidal effect on diamondback moth (Test Example 1); conditions: for Insecticidal effect, Test Example 1 / Insecticidal effect (Test Example 1), judged from mortality: diamondback moth; for Insecticidal effect (Test Example 1), judged from mortality: judged by the criterion of Test Example 1; for Insecticidal effect on diamondback moth (Test Example 1), judged grade: mortality judged according to the criterion shown in Test Example 1
How it was run: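 Triplicate groups of 10 insects: eggs laid on Chinese cabbage seedling by adults, seedling immersed then air-dried, kept at 25° C. Day-6 hatch counts gave mortality, rated by criterion.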

[2] = system: common cutworm (Spodoptera Litura); assay: Insecticidal effect on common cutworm (Test Example 2); conditions: 500 ppm, 25° C.; for Insecticidal effect, Test Example 2: cabbage leaf immersed; for Insecticidal effect, Test Example 2 / Insecticidal effect on common cutworm (Test Example 2), judged grade: eight days after inoculation; for Insecticidal effect on common cutworm (Test Example 2), judged grade / Insecticidal effect (Test Example 2), judged from mortality: cabbage leaf dip; for Insecticidal effect on common cutworm (Test Example 2), judged grade: second-instar larvae; for Insecticidal effect (Test Example 2), judged from mortality: 8 days after inoculation
Protocol: Insecticidal effect on common cutworm (Spodoptera Litura)
After air-drying, it was placed in a plastic Petri dish with a diameter of 9 cm and inoculated with second-instar larvae of common cutworm, after which the dish was closed and then allowed to stand in a room thermostated at 25° C. Eight days after the inoculation, the dead and alive were counted. The mortality was calculated according to the following equation and the insecticidal effect was judged according to the criterion shown in Test Example 1. The test was carried out with triplicate groups of 10 insects. [formula]

[3] = system: rice leafroller (Cnaphalocrocis medinalis); assay: Insecticidal effect on rice leafroller (Test Example 3); conditions: 500 ppm, 25° C., humidity 70%; for Insecticidal effect, Test Example 3: rice lamina immersed; for Insecticidal effect, Test Example 3 / Insecticidal effect on rice leafroller (Test Example 3), judged grade: four days after inoculation; for Insecticidal effect on rice leafroller (Test Example 3), judged grade / Insecticidal effect (Test Example 3), judged from mortality: rice lamina dip; for Insecticidal effect on rice leafroller (Test Example 3), judged grade: third-instar larvae; for Insecticidal effect (Test Example 3), judged from mortality: 4 days after inoculation
How it was run: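 Insecticidal effect is judged by a predefined criterion from dead/alive counts four days after infesting air-dried lamina with third-instar larvae, kept on moistened filter paper at 25° C, 70% humidity.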

[4] = mortality judged by criterion of Test Example 1
[5] = common cutworm second-instar larvae
[6] = second-instar larvae of common cutworm
[7] = third-instar larvae of rice leafroller
[8] = judged by the mortality criterion of Test Example 1
[9] = rice leafroller third-instar larvae

## CC(C)NC(=O)c1c(Cl)cccc1C(=O)Nc1ccc(OC(F)(F)F)cc1F [compound 1187]
[1]; [4]
  Insecticidal effect, Test Example 1: A (100)
[2]; [5]
  Insecticidal effect, Test Example 2: A (100)

## Cc1ccc(OCCNC(=O)c2c(C(=O)Nc3cc(Cl)ccc3C)cccc2[N+](=O)[O-])c(C)c1 [compound 880]
[2]
  Insecticidal effect on common cutworm (Test Example 2), judged grade: D (79-50)

## CC(C)(C)NC(=O)c1c(I)cccc1C(=O)Nc1ccc2c(c1)OC(F)(F)C(F)O2 (stereo not drawn) [compound 1166]
[1]; [4]
  Insecticidal effect, Test Example 1: A (100)
[2]; [5]
  Insecticidal effect, Test Example 2: A (100)

## Cc1cc(OC(F)(F)F)ccc1NC(=O)c1cccc(I)c1C(=O)NC(C)(C)CBr [compound 1605]
[1]
  Insecticidal effect (Test Example 1), judged from mortality: A (100)
[2]; [6]
  Insecticidal effect (Test Example 2), judged from mortality: C (89-80)

## CC(C)NC(=O)c1ccccc1C(=O)Nc1ccc(SC(F)(F)F)cc1 [compound 1123]
[2]; [5]
  Insecticidal effect, Test Example 2: A (100)

## CC(C)NC(=O)c1c(I)cccc1C(=O)Nc1ccc2c(c1Cl)OC(F)(F)C(F)(F)O2 [compound 1732]
[2]; [6]
  Insecticidal effect (Test Example 2), judged from mortality: A (100)

## Cc1cc(C#Cc2ccc(Cl)cc2Cl)ccc1NC(=O)c1cccc(I)c1C(=O)NC(C)C [compound 972]
[2]; [5]
  Insecticidal effect, Test Example 2: A (100)

## CC(C)NC(=O)c1c(C(=O)Nc2cc(C(F)(F)F)cc(C(F)(F)F)c2)cccc1[N+](=O)[O-] [compound 654]
[2]
  Insecticidal effect on common cutworm (Test Example 2), judged grade: D (79-50)

## CC(C)NC(=O)c1ccc(Cl)cc1C(=O)Nc1ccccc1 [compound 181]
[2]; [6]
  Insecticidal effect, Test Example 2: A (100)

## CSc1cccc(C(=O)NC(C)C)c1C(=O)Nc1cccc(Cl)c1C [compound 785]
[2]
  Insecticidal effect on common cutworm (Test Example 2), judged grade: A (100)

## CC(C)NC(=O)c1cccc(Br)c1C(=O)Nc1ccc(OC(F)(F)F)cc1 [Compound No. 302, 6-bromo-N^1-(4-trifluoromethoxyphenyl)-N^2-isopropylphthalic acid diamide]
[3]; [7]
  Insecticidal effect, Test Example 3: D (79-50)
[1]; [8]
  Insecticidal effect, Test Example 1: A (100)

## Cc1ccc(C)c(NC(=O)c2cccc([N+](=O)[O-])c2C(=O)NC(C)C)c1 [compound 649]
[3]
  Insecticidal effect on rice leafroller (Test Example 3), judged grade: C (89-80)
[1]
  Insecticidal effect on diamondback moth (Test Example 1), judged grade: A (100)

## CC(C)NC(=O)c1cccc(Cl)c1C(=O)Nc1ccc2c(c1)nc(C(F)(F)F)n2C [compound 257]
[3]; [7]
  Insecticidal effect, Test Example 3: B (99-90)
[1]; [8]
  Insecticidal effect, Test Example 1: A (100)

## Cc1cc(Oc2ncc(C(F)(F)F)cc2Cl)ccc1NC(=O)c1c(Br)cccc1C(=O)NC(C)C [compound 336]
[3]; [7]
  Insecticidal effect, Test Example 3: D (79-50)
[1]; [8]
  Insecticidal effect, Test Example 1: A (100)

## C#CCNC(=O)c1cccc(I)c1C(=O)Nc1ccc(C(F)(F)C(F)(F)F)cc1C [compound 990]
[3]; [9]
  Insecticidal effect, Test Example 3: A (100)
[1]; [4]
  Insecticidal effect, Test Example 1: A (100)

## CCc1ccccc1NC(=O)c1cccc([N+](=O)[O-])c1C(=O)NC(C)C [compound 602]
[3]
  Insecticidal effect on rice leafroller (Test Example 3), judged grade: A (100)
[1]
  Insecticidal effect on diamondback moth (Test Example 1), judged grade: A (100)

## Cc1cc(C(F)(F)C(F)(F)F)ccc1NC(=O)c1c(Cl)cccc1C(=O)NCc1cccnc1 [compound 1420]
[3]; [9]
  Insecticidal effect, Test Example 3: A (100)
[1]; [4]
  Insecticidal effect, Test Example 1: A (100)

## Cc1cc(OC(F)(F)F)ccc1NC(=O)c1c(F)cccc1C(=O)NC(C)C [compound 564]
[3]
  Insecticidal effect on rice leafroller (Test Example 3), judged grade: B (99-90)
[1]
  Insecticidal effect on diamondback moth (Test Example 1), judged grade: A (100)

## CC(C)NC(=O)c1c(C(=O)Nc2ccc(OC(F)(F)F)cc2Cl)cccc1[N+](=O)[O-] [compound 704]
[3]
  Insecticidal effect on rice leafroller (Test Example 3), judged grade: A (100)
[1]
  Insecticidal effect on diamondback moth (Test Example 1), judged grade: A (100)

## CCC(C)(C)NC(=O)c1c(F)cccc1C(=O)Nc1ccc(OC(F)F)cc1C [compound 1155]
[3]; [9]
  Insecticidal effect, Test Example 3: A (100)
[1]; [4]
  Insecticidal effect, Test Example 1: A (100)

## CC(C)NC(=O)c1ccccc1C(=O)Nc1cccc(C(F)(F)F)c1 [compound 26]
[3]; [7]
  Insecticidal effect, Test Example 3: D (79-50)
[1]; [8]
  Insecticidal effect, Test Example 1: A (100)

## Cc1cc(OC(F)F)ccc1NC(=O)c1c(Cl)ccc(Cl)c1C(=O)NC(C)C [compound 258]
[3]; [7]
  Insecticidal effect, Test Example 3: A (100)
[1]; [8]
  Insecticidal effect, Test Example 1: A (100)

## Cc1c(Cl)cccc1NC(=O)c1c(I)cccc1C(=O)NC(C)C [compound 427]
[3]; [7]
  Insecticidal effect, Test Example 3: D (79-50)
[1]; [8]
  Insecticidal effect, Test Example 1: A (100)

## CC(C)(C)NC(=O)c1ccccc1C(=O)Nc1ccc2c(c1)OC(F)(F)O2 [compound 1103]
[3]; [9]
  Insecticidal effect, Test Example 3: A (100)
[1]; [4]
  Insecticidal effect, Test Example 1: A (100)

## Cc1cc(OC(F)F)ccc1NC(=O)c1c(Br)ccc(Br)c1C(=O)NC(C)C [compound 340]
[3]; [7]
  Insecticidal effect, Test Example 3: A (100)
[1]; [8]
  Insecticidal effect, Test Example 1: A (100)

## CC(C)NC(=O)c1cccc(Cl)c1C(=O)Nc1ccc(OC(F)F)c(Cl)c1 [compound 232]
[3]; [7]
  Insecticidal effect, Test Example 3: A (100)
[1]; [8]
  Insecticidal effect, Test Example 1: A (100)

## Cc1cc(OC(F)(F)C(F)F)ccc1NC(=O)c1c(Br)cccc1C(=O)NC(C)C [compound 330]
[3]; [7]
  Insecticidal effect, Test Example 3: A (100)
[1]; [8]
  Insecticidal effect, Test Example 1: A (100)

## CC(C)NC(=O)c1c(C(=O)Nc2ccc(F)c(Cl)c2)cccc1[N+](=O)[O-] [compound 643]
[3]
  Insecticidal effect on rice leafroller (Test Example 3), judged grade: A (100)
[1]
  Insecticidal effect on diamondback moth (Test Example 1), judged grade: A (100)

## CC(C)NC(=O)c1c(I)cccc1C(=O)Nc1ccc2c(c1Cl)OC(F)(F)C(F)(F)O2 [compound 1626]
[3]; [7]
  Insecticidal effect (Test Example 3), judged from mortality: A (100)
[1]
  Insecticidal effect (Test Example 1), judged from mortality: A (100)

## Cc1cc(OC(F)F)ccc1NC(=O)c1cccc(OC(F)F)c1C(=O)NC(C)C [compound 774]
[3]
  Insecticidal effect on rice leafroller (Test Example 3), judged grade: A (100)
[1]
  Insecticidal effect on diamondback moth (Test Example 1), judged grade: A (100)

## CCCN(CC)C(=O)c1c(F)cccc1C(=O)Nc1ccc(OC(F)F)cc1 [compound 1583]
[3]; [7]
  Insecticidal effect (Test Example 3), judged from mortality: A (100)
[1]
  Insecticidal effect (Test Example 1), judged from mortality: A (100)

## CC(C)NC(=O)c1cccc(Cl)c1C(=O)Nc1ccc(C(C)(C)C)cc1 [compound 196]
[3]; [7]
  Insecticidal effect, Test Example 3: D (79-50)
[1]; [8]
  Insecticidal effect, Test Example 1: A (100)

## CC(C)NC(=O)c1c(Br)cccc1C(=O)Nc1ccc2c(c1)OCO2 [compound 300]
[3]; [7]
  Insecticidal effect, Test Example 3: A (100)
[1]; [8]
  Insecticidal effect, Test Example 1: A (100)

## CCN(CC)C(=O)c1c(C(=O)Nc2ccc(C(F)(F)C(F)(F)F)cc2Cl)cccc1[N+](=O)[O-] [compound 1133]
[3]; [9]
  Insecticidal effect, Test Example 3: A (100)
[1]; [4]
  Insecticidal effect, Test Example 1: A (100)

## Cc1cc(OC(F)(F)C(F)F)c(Cl)cc1NC(=O)c1cccc([N+](=O)[O-])c1C(=O)NC(C)C [compound 718]
[3]
  Insecticidal effect on rice leafroller (Test Example 3), judged grade: A (100)
[1]
  Insecticidal effect on diamondback moth (Test Example 1), judged grade: A (100)

## C#CCNC(=O)c1c(I)cccc1C(=O)Nc1ccc(OC(F)F)cc1C [compound 1456]
[3]; [7]
  Insecticidal effect (Test Example 3), judged from mortality: A (100)
[1]
  Insecticidal effect (Test Example 1), judged from mortality: A (100)

## Cc1cc(C(F)(F)C(F)(F)F)ccc1NC(=O)c1cccc(Cl)c1C(=O)NCCCc1ccccc1 [compound 1331]
[3]; [9]
  Insecticidal effect, Test Example 3: A (100)
[1]; [4]
  Insecticidal effect, Test Example 1: A (100)

## Cc1cc(C(F)(F)C(F)(F)F)ccc1NC(=O)c1cccc(Cl)c1C(=O)NC(C)c1ccccc1 (stereo not drawn) [compound 1321]
[3]; [9]
  Insecticidal effect, Test Example 3: A (100)
[1]; [4]
  Insecticidal effect, Test Example 1: A (100)
